The numbers were not newly measured in US5093372A, “Novel pharmaceutical composition comprising exifone and water-soluble polymer” (Fujisawa Pharmaceutical Co. Inc., priority 1987, dated 1992), which cites them from elsewhere.

The conditions of series [1]: orally administered as a conventional pharmaceutical composition.

The structures appear in SMILES notation.

As for `O=C(c1cc(O)c(O)c(O)c1)c1ccc(O)c(O)c1O` [exifone], the “solubility in water (in words)” value is “sparingly soluble in water”. Further, the “saturated solubility in water” value (about) was 70 to 80 µg/mL. In series [1], the “absorption into blood circulation (in words)” value was “poor” and the “bioavailability (in words)” value was “low”.
